Results taken from ChEMBL document CHEMBL1150976, “The selectivity of protein kinase inhibitors: a further update” (Biochem J, 2007).

Columns and labels:
[1] = target: T1, Dual specificity tyrosine-phosphorylation-regulated kinase 3 (Homo sapiens) (UniProt O43781); assay: Percentage DYRK3 activity remaining in the presence of 0.1uM inhibitor
T1 sequence (whole entry): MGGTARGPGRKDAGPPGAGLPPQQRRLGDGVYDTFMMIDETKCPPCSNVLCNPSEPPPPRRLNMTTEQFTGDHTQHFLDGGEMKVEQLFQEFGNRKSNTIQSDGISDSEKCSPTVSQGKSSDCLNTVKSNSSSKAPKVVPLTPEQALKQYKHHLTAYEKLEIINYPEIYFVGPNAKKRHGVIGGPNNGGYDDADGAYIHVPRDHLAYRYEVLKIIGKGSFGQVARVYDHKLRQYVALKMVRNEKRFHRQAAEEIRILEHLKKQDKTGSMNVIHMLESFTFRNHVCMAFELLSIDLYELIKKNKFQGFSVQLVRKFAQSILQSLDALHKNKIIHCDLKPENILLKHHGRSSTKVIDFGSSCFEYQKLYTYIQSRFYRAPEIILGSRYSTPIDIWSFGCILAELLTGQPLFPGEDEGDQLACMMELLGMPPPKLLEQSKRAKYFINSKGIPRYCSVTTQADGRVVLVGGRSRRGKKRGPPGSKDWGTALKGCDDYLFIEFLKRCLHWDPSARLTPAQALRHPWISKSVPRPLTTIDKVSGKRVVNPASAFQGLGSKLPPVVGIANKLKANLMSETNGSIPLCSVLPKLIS

[2] = target: T2, MAP kinase-activated protein kinase 5 (Homo sapiens) (UniProt Q8IW41); assay: Percentage PRAK activity remaining in the presence of 0.01uM inhibitor
T2 sequence (whole entry): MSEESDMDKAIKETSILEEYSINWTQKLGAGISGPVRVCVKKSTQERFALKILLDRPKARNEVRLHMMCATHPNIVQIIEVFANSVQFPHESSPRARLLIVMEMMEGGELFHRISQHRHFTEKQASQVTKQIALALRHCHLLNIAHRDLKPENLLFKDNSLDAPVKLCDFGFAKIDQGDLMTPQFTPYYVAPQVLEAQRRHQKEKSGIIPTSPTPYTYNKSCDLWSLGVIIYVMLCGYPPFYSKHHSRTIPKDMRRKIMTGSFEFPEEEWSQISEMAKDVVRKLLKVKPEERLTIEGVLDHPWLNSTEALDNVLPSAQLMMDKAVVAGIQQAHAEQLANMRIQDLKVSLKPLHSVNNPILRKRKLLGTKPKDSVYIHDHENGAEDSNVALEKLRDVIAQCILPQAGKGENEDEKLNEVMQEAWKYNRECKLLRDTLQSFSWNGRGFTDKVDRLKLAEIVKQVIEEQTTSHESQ

[3] = target: T3, Inhibitor of nuclear factor kappa-B kinase subunit beta (Homo sapiens) (UniProt O14920); assay: Percentage IKK-beta activity remaining in the presence of 0.01uM inhibitor
T3 sequence (whole entry): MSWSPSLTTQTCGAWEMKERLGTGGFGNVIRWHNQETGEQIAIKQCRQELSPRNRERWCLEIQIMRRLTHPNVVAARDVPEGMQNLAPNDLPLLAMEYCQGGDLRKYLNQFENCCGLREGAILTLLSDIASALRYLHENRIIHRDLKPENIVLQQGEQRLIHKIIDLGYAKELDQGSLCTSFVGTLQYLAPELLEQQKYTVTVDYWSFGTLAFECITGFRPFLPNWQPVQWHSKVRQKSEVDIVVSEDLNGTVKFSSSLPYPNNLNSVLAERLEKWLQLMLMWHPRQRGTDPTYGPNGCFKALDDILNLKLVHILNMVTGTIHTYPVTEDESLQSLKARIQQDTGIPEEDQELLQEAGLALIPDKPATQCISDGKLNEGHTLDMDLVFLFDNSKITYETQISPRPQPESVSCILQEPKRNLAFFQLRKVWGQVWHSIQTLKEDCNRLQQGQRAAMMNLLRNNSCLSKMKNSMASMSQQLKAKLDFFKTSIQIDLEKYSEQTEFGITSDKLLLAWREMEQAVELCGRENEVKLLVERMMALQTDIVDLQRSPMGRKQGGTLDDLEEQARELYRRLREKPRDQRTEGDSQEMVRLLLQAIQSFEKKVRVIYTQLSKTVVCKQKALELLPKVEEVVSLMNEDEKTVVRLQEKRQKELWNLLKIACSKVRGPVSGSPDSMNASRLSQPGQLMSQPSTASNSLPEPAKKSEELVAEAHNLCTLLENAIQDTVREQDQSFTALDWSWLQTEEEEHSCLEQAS

[4] = target: Mitogen-activated protein kinase 3 (Homo sapiens) (UniProt P27361); assay: Percentage ERK1 activity remaining in the presence of 0.01uM inhibitor
[5] = target: MAP/microtubule affinity-regulating kinase 3 (Homo sapiens) (UniProt P27448); assay: Percentage MARK3 activity remaining in the presence of 0.1uM inhibitor
[6] = target: Serine/threonine-protein kinase PLK1 (Homo sapiens, UniProt P53350); assay: Percentage PLK1 activity remaining in the presence of 0.01uM inhibitor
[7] = target: T4, Dual specificity tyrosine-phosphorylation-regulated kinase 2 (Homo sapiens) (UniProt Q92630); assay: Percentage DYRK2 activity remaining in the presence of 0.01uM inhibitor
T4 sequence (whole entry): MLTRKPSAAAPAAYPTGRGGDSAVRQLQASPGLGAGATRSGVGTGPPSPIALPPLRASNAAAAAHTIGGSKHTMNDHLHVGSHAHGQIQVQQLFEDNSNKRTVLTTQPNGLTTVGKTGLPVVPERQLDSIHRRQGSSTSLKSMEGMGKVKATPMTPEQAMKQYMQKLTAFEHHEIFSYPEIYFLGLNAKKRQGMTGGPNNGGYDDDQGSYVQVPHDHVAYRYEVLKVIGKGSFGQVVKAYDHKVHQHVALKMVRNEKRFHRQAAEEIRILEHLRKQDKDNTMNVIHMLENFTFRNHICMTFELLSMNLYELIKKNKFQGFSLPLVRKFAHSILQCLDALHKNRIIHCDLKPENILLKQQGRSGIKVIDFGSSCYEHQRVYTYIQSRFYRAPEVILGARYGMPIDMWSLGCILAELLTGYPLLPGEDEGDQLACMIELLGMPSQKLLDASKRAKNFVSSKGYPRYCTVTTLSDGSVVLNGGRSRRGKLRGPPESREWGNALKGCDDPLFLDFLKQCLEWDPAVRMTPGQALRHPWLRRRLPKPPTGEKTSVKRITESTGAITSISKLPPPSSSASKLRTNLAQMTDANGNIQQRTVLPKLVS

[8] = species on record: Homo sapiens; assay: Percentage PHK activity remaining in the presence of 0.01uM inhibitor
[9] = target: Aurora kinase B (Homo sapiens, UniProt Q96GD4); assay: Percentage Aurora B activity remaining in the presence of 0.01uM inhibitor
[10] = target: Calcium/calmodulin-dependent protein kinase kinase 1 (Homo sapiens) (UniProt Q8N5S9); assay: Percentage CaMKKalpha activity remaining in the presence of 0.01uM inhibitor
[11] = target: Maternal embryonic leucine zipper kinase (Homo sapiens) (UniProt Q14680); assay: Percentage MELK activity remaining in the presence of 0.01uM inhibitor
Sequence of Maternal embryonic leucine zipper kinase (Homo sapiens) (Q14680 whole entry, looked up): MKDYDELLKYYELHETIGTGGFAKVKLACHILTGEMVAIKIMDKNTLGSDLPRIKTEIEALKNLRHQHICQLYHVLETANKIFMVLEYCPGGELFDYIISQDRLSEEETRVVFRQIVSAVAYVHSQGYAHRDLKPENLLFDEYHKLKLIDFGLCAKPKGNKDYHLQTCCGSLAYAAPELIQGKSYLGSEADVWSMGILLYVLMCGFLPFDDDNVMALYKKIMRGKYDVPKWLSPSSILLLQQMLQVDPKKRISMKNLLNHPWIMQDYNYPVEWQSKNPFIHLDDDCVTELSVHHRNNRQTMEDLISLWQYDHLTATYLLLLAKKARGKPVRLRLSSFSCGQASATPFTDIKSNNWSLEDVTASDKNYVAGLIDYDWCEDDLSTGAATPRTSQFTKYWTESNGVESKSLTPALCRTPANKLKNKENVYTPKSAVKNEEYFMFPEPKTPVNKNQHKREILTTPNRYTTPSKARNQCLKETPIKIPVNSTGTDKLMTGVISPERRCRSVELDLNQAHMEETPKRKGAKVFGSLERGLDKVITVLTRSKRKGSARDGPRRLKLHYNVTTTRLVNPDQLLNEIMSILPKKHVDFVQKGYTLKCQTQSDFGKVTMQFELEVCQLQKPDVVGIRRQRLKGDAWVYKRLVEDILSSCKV

Sequence of MAP/microtubule affinity-regulating kinase 3 (Homo sapiens) (P27448 whole entry, looked up): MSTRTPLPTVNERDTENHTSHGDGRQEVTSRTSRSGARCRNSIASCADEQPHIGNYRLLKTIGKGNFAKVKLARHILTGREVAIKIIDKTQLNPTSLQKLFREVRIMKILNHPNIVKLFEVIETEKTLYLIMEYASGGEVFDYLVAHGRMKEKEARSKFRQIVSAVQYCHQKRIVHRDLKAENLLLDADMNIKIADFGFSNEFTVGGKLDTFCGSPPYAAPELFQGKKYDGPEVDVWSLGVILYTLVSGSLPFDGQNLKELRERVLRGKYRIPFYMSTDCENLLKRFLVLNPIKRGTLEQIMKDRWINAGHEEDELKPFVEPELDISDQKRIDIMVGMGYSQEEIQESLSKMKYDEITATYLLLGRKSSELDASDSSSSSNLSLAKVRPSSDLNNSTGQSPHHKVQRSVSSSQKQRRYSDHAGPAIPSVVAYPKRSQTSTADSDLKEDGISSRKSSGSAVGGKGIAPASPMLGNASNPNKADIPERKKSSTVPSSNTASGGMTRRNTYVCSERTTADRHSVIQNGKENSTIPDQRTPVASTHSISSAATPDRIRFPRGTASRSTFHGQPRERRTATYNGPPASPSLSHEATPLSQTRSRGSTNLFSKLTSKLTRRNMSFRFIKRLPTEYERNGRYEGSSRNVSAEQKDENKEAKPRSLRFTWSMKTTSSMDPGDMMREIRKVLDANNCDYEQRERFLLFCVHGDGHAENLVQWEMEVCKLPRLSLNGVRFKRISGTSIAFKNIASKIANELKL
Sequence of Serine/threonine-protein kinase PLK1 (P53350 whole entry): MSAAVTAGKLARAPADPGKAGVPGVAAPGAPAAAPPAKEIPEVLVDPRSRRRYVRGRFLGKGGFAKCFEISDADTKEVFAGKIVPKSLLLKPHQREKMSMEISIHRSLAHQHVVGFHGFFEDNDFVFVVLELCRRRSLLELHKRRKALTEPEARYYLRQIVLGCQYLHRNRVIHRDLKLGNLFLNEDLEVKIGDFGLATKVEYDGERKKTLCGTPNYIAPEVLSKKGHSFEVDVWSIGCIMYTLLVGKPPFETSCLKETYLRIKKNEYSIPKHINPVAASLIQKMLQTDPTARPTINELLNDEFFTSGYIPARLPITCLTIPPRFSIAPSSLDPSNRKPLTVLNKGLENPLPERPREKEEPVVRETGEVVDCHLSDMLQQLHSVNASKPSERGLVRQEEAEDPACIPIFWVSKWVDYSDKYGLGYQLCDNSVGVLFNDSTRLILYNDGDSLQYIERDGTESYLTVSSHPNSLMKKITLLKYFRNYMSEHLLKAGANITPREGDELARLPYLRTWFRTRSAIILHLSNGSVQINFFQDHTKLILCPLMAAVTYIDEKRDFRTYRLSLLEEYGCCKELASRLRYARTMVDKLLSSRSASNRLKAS
Sequence of Mitogen-activated protein kinase 3 (Homo sapiens) (P27361 whole entry): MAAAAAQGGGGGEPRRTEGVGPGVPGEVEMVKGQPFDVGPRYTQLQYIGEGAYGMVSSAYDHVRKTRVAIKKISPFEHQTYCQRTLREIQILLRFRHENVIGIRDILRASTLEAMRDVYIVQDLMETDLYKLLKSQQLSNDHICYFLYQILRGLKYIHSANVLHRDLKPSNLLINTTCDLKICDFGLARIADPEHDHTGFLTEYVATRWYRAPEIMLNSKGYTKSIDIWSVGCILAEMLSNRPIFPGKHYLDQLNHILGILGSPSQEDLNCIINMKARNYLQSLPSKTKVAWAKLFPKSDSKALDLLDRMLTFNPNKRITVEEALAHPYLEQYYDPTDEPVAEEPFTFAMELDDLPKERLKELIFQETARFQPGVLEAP
Sequence of Aurora kinase B (Q96GD4 whole entry): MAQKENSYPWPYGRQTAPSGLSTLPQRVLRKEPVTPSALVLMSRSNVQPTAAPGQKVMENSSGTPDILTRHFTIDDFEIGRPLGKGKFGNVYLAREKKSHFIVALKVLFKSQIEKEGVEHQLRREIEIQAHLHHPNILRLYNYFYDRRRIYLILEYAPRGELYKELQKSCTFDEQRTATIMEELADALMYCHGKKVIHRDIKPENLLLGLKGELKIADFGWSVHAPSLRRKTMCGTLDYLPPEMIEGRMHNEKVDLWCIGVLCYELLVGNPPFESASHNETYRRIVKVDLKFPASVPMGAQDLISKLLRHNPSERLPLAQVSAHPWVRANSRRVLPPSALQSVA
Sequence of Calcium/calmodulin-dependent protein kinase kinase 1 (Homo sapiens) (Q8N5S9 whole entry, looked up): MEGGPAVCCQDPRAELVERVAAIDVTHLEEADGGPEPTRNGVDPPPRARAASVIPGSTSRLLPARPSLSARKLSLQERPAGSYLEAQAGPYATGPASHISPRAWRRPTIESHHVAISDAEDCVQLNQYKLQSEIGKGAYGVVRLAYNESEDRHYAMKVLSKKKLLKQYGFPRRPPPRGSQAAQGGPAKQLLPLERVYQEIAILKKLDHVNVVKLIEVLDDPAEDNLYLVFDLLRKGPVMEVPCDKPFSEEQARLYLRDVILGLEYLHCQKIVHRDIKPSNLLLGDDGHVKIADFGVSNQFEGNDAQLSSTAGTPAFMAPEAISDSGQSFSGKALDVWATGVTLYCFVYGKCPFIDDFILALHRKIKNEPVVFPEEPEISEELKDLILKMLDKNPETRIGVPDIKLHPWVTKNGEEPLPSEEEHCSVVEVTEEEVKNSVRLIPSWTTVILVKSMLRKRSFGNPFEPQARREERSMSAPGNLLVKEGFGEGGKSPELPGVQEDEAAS

Row | SMILES | Activity [2] | Activity [3] | Activity [4] | Activity [5] | Activity [6] | Activity [7] | Activity [10] | Activity [11] | Activity [1] | further results
1 | Cc1n[nH]c2ccc(-c3cncc(OC[C@@H](N)Cc4c[nH]c5ccccc45)c3)cc12 | 107% | 93% | 77% | 83% | 89% | 79% | 112% | 96% |  | Activity ([1]; filed as antagonist): 8%; Activity [8]: 86%; Activity [9]: 81%
2 | CC(C)[C@H](CO)Nc1nc(Nc2cccc(Cl)c2)c2ncn(C(C)C)c2n1 [PURVALANOLA] |  |  |  | 89% |  |  |  |  | 89% | 
3 | CN[C@@H]1C[C@H]2O[C@@](C)([C@@H]1OC)n1c3ccccc3c3c4c(c5c6ccccc6n2c5c31)C(=O)N[C@H]4O (stereo in doubt) | 83% | 86% | 112% |  | 76% | 92% | 58% | 53% |  | Activity ([8]; filed as antagonist): 5%; Activity [9]: 59%
4 | Cn1c2ccccc2c2c3c(c4c5ccccc5n(CCC#N)c4c21)CNC3=O |  |  |  |  |  |  |  |  |  | Activity ([1]; filed as antagonist): 28%; Activity ([5]; filed as antagonist): 12%
5 | CC(C)CCN1c2nc(Nc3cc(F)c(O)c(F)c3)ncc2N(C)C(=O)C1C (stereo unspecified) |  |  |  | 79% |  |  |  |  | 91% | 
6 | CN(C)C[C@@H]1CCn2cc(c3ccccc32)C2=C(C(=O)NC2=O)c2cn(c3ccccc23)CCO1 |  |  |  | 73% |  |  |  |  | 64% | 
7 | Cn1cc(C2=C(c3cn(CCCSC(=N)N)c4ccccc34)C(=O)NC2=O)c2ccccc21 |  |  |  | 77% |  |  |  |  | 55% | 
8 | O=C(NCCCNc1nc(Nc2cccc(NC(=O)N3CCCC3)c2)ncc1I)c1cccs1 | 97% | 108% | 82% |  | 95% | 105% | 86% | 95% | 65% | Activity ([5]; filed as antagonist): 3%; Activity [8]: 94%; Activity ([9]; filed as antagonist): 17%
